Measured values as given in ChEMBL document CHEMBL2028040, “Malaria Box”.

Experiments:
[1] = system: Plasmodium falciparum; assay: MMV: Inhibition of Plasmodium falciparum 3D7 (EC50).; assay type: functional, organism-based
[2] = system: Plasmodium falciparum; assay: MMV: Inhibition of Plasmodium falciparum 3D7 at 5uM compound concentration.; assay type: functional
[3] = system: Trypanosoma brucei brucei; assay: MMV: Inhibition of Trypanosoma brucei brucei (Squib 427) (HAT in vitro).; assay type: functional, organism-based
[4] = system: Trypanosoma brucei rhodesiense; assay: MMV: Inhibition of Trypanosoma brucei rhodesiense (STIB 900) (HAT in vitro).; assay type: functional, organism-based
[5] = system: Plasmodium falciparum; assay: MMV: Inhibition of Plasmodium falciparum K1 (EC50).; assay type: functional, organism-based
[6] = MMV: Cytotoxicity against human fibroblasts (MRC-5) cells.; details: MRC-5 cells (human fibroblasts)
[7] = system: Leishmania infantum; assay: MMV: Inhibition of Leishmania infantum (MHOM/MA/BE/67) in vitro.; assay type: functional, organism-based
[8] = system: Trypanosoma cruzi; assay: MMV: Inhibition of Trypanosoma cruzi (Tulahuen C4 LacZ) (Chagas in vitro).; assay type: functional, organism-based

SMILES | EC50 [1] | inhibition at 5 µM [2] | IC50 [3] | IC50 [4] | EC50 [5] | IC50 [6] | IC50 [7] | IC50 [8]
CSC1=NC(=Nc2c(C)cccc2C)C2(CCC(C(C)(C)C)CC2)N1c1ccc(Cl)cc1 (stereo not drawn) | 0.135 µM | 96% | 16.1 µM | 15.3 µM | 0.172 µM | > 32 µM | 16.2 µM | 15.4 µM
Cc1ccc(-c2cc3c(nn2)-c2ccccc2C3=O)cc1 | 0.0944 µM | 99% | > 32 µM | 15 µM | 0.165 µM | > 32 µM | > 32 µM | > 32 µM
Oc1ccccc1CN1CCC2(CCCN(Cc3ccccc3F)C2)C1 (stereo not drawn) | 0.548 µM | 98% | 14.8 µM | 15.8 µM | 0.268 µM | > 32 µM | 16 µM | 14 µM
COc1cccc(O)c1CN1CCC2(CCCN(Cc3ccc(F)cc3)C2)C1 (stereo not drawn) | 0.53 µM | 95% | 4.23 µM | 1.85 µM | 0.375 µM | > 32 µM | 10.1 µM | 12.3 µM
CCOC(=O)C1=C(C)N=c2sc(=Cc3ccccc3O)c(=O)n2C1c1ccc(OC)c2ccccc12 (stereo not drawn) | 1.51 µM | 97% | 16.9 µM | 7.36 µM | 1.17 µM | > 32 µM | 16.2 µM | > 32 µM
CCOC(=O)C1=C(C)N=c2sc(=Cc3cc(Cl)ccc3O)c(=O)n2C1c1ccc(OC)cc1 (stereo not drawn) | 0.489 µM | 97% | 14.2 µM | 4.15 µM | 0.49 µM | 16.6 µM | 16.2 µM | 14.1 µM
Cc1ccc(N2C(=O)C3C(C2=O)C2(c4ccccc4)C(=O)C3(c3ccccc3)C(c3ccccc3)=C2c2ccccc2)cc1 (stereo not drawn) | 0.282 µM | 98% | > 32 µM | > 32 µM | 0.396 µM | > 32 µM | > 32 µM | > 32 µM
CCCCCCc1cc2cc(-c3csc(C=Cc4ccccc4)n3)c(=O)oc2cc1O | 0.387 µM | 92% | 13.6 µM | 8.87 µM | 0.143 µM | > 32 µM | > 32 µM | 19.1 µM
CCOC(=O)c1cn(CC)c2cc(N(C)CCc3ccc(OC)c(OC)c3)c(F)cc2c1=O | 0.205 µM | 99% | > 32 µM | > 32 µM | 0.436 µM | > 32 µM | > 32 µM | > 32 µM
COc1ccc(C(=O)NC(c2ccc(Cl)cc2Cl)c2cc(Cl)c3cccnc3c2O)cc1 (stereo not drawn) | 0.513 µM | 96% | 3.94 µM | 4.09 µM | 0.525 µM | 7.79 µM | 4.76 µM | 3.85 µM
O=C(NC(c1ccccc1)c1ccc2cccnc2c1O)c1ccccc1 (stereo not drawn) | 1.17 µM | 95% | < 0.125 µM | < 0.125 µM | 1.45 µM | 11.8 µM | 16.6 µM | < 0.125 µM
COc1ccc(C2=C(c3ccc(OC)cc3)C3(c4ccccc4)C(=O)C2(c2ccccc2)C2C(=O)N(c4ccc(C)cc4)C(=O)C23)cc1 (stereo not drawn) | 0.148 µM | 98% | > 32 µM | > 32 µM | 0.188 µM | > 32 µM | > 32 µM | > 32 µM
CCOC(=O)C1=C(c2ccccc2)N=c2sc(=Cc3cc(C)n(-c4ccc(F)cc4)c3C)c(=O)n2C1c1cccc(OC)c1OC (stereo not drawn) | 0.154 µM | 94% | > 32 µM | 13.3 µM | 0.344 µM | > 32 µM | > 32 µM | > 32 µM
COc1cccc(C=Cc2nc(=O)c3ccccc3o2)c1OC | 0.0238 µM | 96% | > 32 µM | 17.5 µM | 0.0362 µM | > 32 µM | > 32 µM | > 32 µM
COc1ccc(CNC2CCN(c3ccc(NC(=O)c4cccc(Cl)c4)cc3)CC2)cc1OC | 0.663 µM | 97% | 3.09 µM | 3.8 µM | 1.61 µM | > 32 µM | 6.35 µM | 15.4 µM
COc1ccc(C=C2SC(=N)N(c3ccccc3OC)C2=O)cc1 | 0.168 µM | 97% | 13.7 µM | 13.9 µM | 0.687 µM | 4.49 µM | 16.1 µM | 11.6 µM
CCOC(=O)c1c(C)n(-c2ccc(Cl)cc2)c2ccc(OC(=O)C=Cc3ccccc3)cc12 | 0.215 µM | 97% | 16.1 µM | 4.32 µM | 0.659 µM | 18.5 µM | > 32 µM | 11.6 µM
OC(Cn1nnc2ccccc21)Cn1c2ccc(Br)cc2c2cc(Br)ccc21 (stereo not drawn) | 1.26 µM | 98% | > 32 µM | > 32 µM | 1.23 µM | > 32 µM | > 32 µM | > 32 µM
COc1ccccc1C(=O)ON=C(N)Cc1cccc2ccccc12 | 0.814 µM | 97% | 15 µM | 2.9 µM | 0.705 µM | 13.9 µM | > 32 µM | 5.48 µM
COc1cc(C(=O)ON=C(N)Cc2cccc3ccccc23)cc(OC)c1OC | 0.782 µM | 99% | 4.09 µM | 1.15 µM | 0.54 µM | 5.66 µM | > 32 µM | 2.62 µM
Cc1cc(C=C2SC(=Nc3ccccc3)N(C3CCCC3)C2=O)c(C)n1-c1ccc(Cl)cc1 | 0.263 µM | 97% | > 32 µM | > 32 µM | 0.666 µM | > 32 µM | 25.4 µM | > 32 µM
COc1cccc(C(=O)NC(c2ccc(C)cc2)c2cc(Cl)c3cccnc3c2O)c1 (stereo not drawn) | 0.393 µM | 97% | 3.49 µM | 4.06 µM | 0.527 µM | > 32 µM | > 32 µM | 3.77 µM
CCCCCCc1cc(O)c2c3c(c(=O)oc2c1)CCC(C)C3 (stereo not drawn) | 0.534 µM | 96% | 4.18 µM | 4.21 µM | 0.467 µM | > 32 µM | > 32 µM | > 32 µM
CCCCCCc1cc2cc(-c3nc4ccccc4[nH]3)c(=Nc3ccccc3C)oc2cc1O | 0.551 µM | 96% | 17 µM | 12.8 µM | 0.149 µM | > 32 µM | > 32 µM | > 32 µM
c1ccc(Cn2c(N=Nc3c(Nc4ccccc4)ccc4ccccc34)nc3ccccc32)cc1 | 0.0368 µM | 96% | 0.88 µM | 0.217 µM | 0.048 µM | 0.389 µM | 3.01 µM | 0.136 µM
O=C(Nc1cccc(C2=NCCN2)c1)Nc1cccc(C2=NCCN2)c1 [IMIDOCARB] | 1.01 µM | 83% | 19.6 µM | 0.265 µM | 1.38 µM | > 32 µM | > 32 µM | > 32 µM
